# Measured values reported in patent publication US20110262395A1, “SENSORY RECEPTORS FOR CHRONIC FATIGUE AND PAIN AND USES THEREOF” (UNIVERSITY OF UTAH RESEARCH FOUNDATION, priority 2008, published 2011).
# Entries after “also recorded” stand apart in the source; their conditions may differ.
# Experiments:
# DRG neurons [1] = assay: Calcium imaging of cultured DRG neurons: percent of neurons responding to applied metabolites or capsaicin; format: cell-based, mouse; details: for ability to enhance metabolite responses: ATP: 1 μM
# From the text: (§1) Harvesting/culturing cells/loading cells: Thirty-nine three week old (4 wells of DRG neurons plated from each mouse), C57Bl/6 mice were anesthetized with isoflurane, and euthanized by cervical dislocation. Dorsal root ganglia (DRG) from lumbar regions were removed into HBSS, treated with trypsin, washed with MEM (Invitrogen 51200-038) containing 10% FBS (Hyclone), 2.4% glucose, 1% glutamax (Invitrogen 35050-061) and 1% penicillin/streptomycin (Atlanta Biological B2110). DRG were triturated, pre-plated and incubated at 37° C. for one hour to reduce non-neuronal cells. Neurons were gently swirled and centrifuged (110×g, 5 min). Cells were removed, re-suspended and 30 μL plated onto the 4 center wells of 24-well plates coated with poly-L-lysine and laminin. A 0.5 mm thick silicone ring with a 4 mm diameter opening sealed to the surface of each well reduced the plating area in each well. Following 1 hour, wells were filled with 37° C. culture medium with 10 ng/mL GDNF (Glial Derived Neurotrophic Factor) (Preprotech 450-10). Sixteen to 23 hours after plating, cultures were loaded with Fura-2 AM (Molecular Probes F-1221) fluorescent dye for 40-60 minutes, then washed with pH 7.4 oxygenated observation medium containing no additional ATP (145 mM NaCl, 5 mM KCl, 2 mM CaCl2, 1 mM MgCl2, 1 mM Citrate, 10 mM glucose, 10 mM MES, 10 mM HEPES). The final well volume was 500 μL.
# Choice and concentrations of metabolites: Because the afferent receptors in muscle have been reported to be on the outside of blood vessels supplying muscle, values obtained for muscle interstitium from experiments using cat, rat, and human for muscle contraction evoked by mild to moderate to extreme exercise were used.
# Protons (pH): Values between 7.6 and 6.2 were used spanning the range found in skeletal and cardiac muscle in mammals from above resting values to those found with injury and disease.
# Lactate: 1-50 mM lactate was used, a range of values that spans from rest to ischemia in muscles of humans and rats and mice.
# ATP: ATP concentrations in muscle interstitium increase from 300 nM at rest to 5 μM with ischemic muscle contraction (Hellsten et al., 1998; Li et al., 2003; Li et al., 2005). These levels were used in the experiments described below. […] To allow for physiological levels of desensitization of possible P2X receptors, freshly prepared ATP at 300 nM was used for at least 30 seconds before any further increases in ATP combined with other metabolites, to establish resting conditions in DRG neurons in these experiments. […] Also used were pH 6.0 and 4.0 without additional increases in metabolites to confirm that the imaging experiments could replicate recent reports using patch-clamp techniques (Leffler et al., 2006).
# (§2) Combinations of metabolites applied to mimic naturally occurring conditions: When applied in an escalating series to mimic increases in metabolites that occur with muscle exercise and ischemic muscle exercise, the metabolite values shown in Table 1 were used. The values associated with pH 7.6 are at or below those normally found at rest in the mouse. The values at 7.4 approximate those found at rest. Generally, the low metabolite values associated with pH higher than 7.0 are likely to be non-noxious, while higher metabolite values at pH 7.0 and lower may be associated with pain. These values should bracket the physiological range of metabolites found in skeletal muscle with the last two values (those associated with 6.4 and 6.2) being higher than the physiological range (Bangsbo et al., 1993; Bangsbo et al., 2001; Li et al., 2003; Li et al., 2005; Reeh and Kress, 2001; Steinhagen et al., 1976).
# Di-I labeling: In some experiments, neurons were identified as innervating muscle by prior muscle labeling with Di-I. Twelve 7-9 day old mice were anesthetized by cooling. […]
# ASIC3 = target: T1, ASIC3 (Homo sapiens, UniProt Q9UHC3); details: cited from earlier work
# T1 sequence (Q9UHC3 1-531): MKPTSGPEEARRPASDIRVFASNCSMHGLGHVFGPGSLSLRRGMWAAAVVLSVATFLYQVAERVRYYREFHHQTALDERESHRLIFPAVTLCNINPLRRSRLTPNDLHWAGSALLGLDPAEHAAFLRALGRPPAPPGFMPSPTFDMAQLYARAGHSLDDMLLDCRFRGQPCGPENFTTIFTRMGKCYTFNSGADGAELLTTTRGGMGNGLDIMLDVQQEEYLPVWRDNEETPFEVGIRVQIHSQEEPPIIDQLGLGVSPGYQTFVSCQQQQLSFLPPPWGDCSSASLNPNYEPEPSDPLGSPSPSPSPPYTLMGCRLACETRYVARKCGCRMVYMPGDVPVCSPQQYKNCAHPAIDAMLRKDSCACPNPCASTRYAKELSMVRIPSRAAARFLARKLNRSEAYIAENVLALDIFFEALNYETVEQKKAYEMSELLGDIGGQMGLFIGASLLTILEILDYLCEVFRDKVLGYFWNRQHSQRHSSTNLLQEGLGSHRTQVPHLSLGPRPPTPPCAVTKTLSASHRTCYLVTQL
# DRG neurons [2] = assay: Calcium imaging of cultured DRG neurons: antagonist effects on responses to increasing metabolites (protons, lactate, ATP); format: cell-based, mouse
# From the text: as §1, §2
# (§3) JYL-1422, LJO-328, A-317567, and a selected stereo isomer of A-317567 were each dissolved in 5% DMSO/95% water and a few μL of 1M HCl to a concentration of 10 mM, then quick frozen and stored at −20° C. Aliquots of antagonists were thawed and diluted to the appropriate concentrations just prior to use in the experiments. The strong buffers maintained the pH of these antagonists when mixed with metabolites.
# (§4) Imaging procedure: All experiments were performed at room temperature (20-25° C.) to allow correspondence with most previous experiments using calcium imaging and patch clamp of DRG neurons. Cells were imaged using the Meta Imaging Series Metafluor program (Universal Imaging Corp). All cells identifiable as neurons based on their round shape, clear, single nucleus, were selected from a phase image of the field. At the end of each experiment, 200 nM capsaicin was applied, followed by a wash, and then applied 50 mM KCl. Capsaicin activation indicated the presence of TRPV1 receptors on neurons, and KCl ensured that recorded objects were active neurons, and established the maximal calcium response in each neuron. For some neurons the administration of capsaicin abolished the potential for responding to KCl, thus either a response to capsaicin or to KCl indicated viability of neurons, and only viable neurons were included in analyses.
# For each field an average of 151+10 cells were tracked real-time. […] FIGS. 1 and 2 show traces from these graphs. […]
# ASIC1 = target: T2, ASIC1 (Homo sapiens, UniProt P78348); details: read-out: IC 50 for ASIC1; cited from earlier work
# T2 sequence (P78348 1-528): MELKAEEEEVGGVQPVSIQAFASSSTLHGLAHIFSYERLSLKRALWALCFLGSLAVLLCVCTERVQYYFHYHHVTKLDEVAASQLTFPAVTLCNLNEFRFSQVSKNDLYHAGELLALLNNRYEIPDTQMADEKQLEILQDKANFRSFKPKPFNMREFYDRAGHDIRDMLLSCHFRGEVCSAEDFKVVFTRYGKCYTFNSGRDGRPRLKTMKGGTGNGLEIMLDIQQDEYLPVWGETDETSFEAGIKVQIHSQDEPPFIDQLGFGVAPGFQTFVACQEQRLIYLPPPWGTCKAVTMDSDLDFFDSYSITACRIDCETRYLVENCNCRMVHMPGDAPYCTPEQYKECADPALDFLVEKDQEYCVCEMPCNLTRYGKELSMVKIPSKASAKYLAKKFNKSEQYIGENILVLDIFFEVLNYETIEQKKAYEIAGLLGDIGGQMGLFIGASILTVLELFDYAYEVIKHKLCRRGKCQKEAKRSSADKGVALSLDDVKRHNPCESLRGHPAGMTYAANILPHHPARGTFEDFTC
# DRG neurons [3] = assay: Calcium imaging of cultured DRG neurons: antagonist effects on responses to capsaicin, ATP or KCl (selectivity control); format: cell-based, mouse
# From the text: as §1, §3, §4
# For each field an average of 151+10 cells were tracked real-time. […]
# ASIC2 = target: T3, ASIC2 (Homo sapiens, UniProt Q16515); details: read-out: IC 50 for ASIC2; cited from earlier work
# T3 sequence (Q16515 1-512): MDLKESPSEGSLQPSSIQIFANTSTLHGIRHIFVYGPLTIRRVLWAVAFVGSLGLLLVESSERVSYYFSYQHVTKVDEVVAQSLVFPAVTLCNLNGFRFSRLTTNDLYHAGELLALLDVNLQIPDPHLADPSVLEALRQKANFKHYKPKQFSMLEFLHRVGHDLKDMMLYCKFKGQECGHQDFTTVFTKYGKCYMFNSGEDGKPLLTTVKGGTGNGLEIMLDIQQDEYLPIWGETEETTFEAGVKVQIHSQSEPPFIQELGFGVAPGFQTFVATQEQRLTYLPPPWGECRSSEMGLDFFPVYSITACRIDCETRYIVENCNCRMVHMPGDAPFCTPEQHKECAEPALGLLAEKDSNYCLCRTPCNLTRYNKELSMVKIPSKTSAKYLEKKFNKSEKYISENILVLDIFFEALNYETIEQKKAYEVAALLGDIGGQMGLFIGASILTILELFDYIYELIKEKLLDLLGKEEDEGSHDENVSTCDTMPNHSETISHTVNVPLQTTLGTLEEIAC
molecule,measurement,setting,value
Nc1ncnc2c1ncn2[C@@H]1O[C@H](COP(=O)(O)OP(=O)(O)O)[C@@H](O)[C@H]1O [ADP],ability to enhance metabolite responses,DRG neurons [1],not capable of enhancing metabolite responses
APETx2,inhibition of ASIC3 and ASIC3 heteromers,ASIC3,can selectively inhibit ASIC3 and ASIC3 heteromers
Nc1ncnc2c1ncn2[C@@H]1O[C@H](COP(=O)(O)OP(=O)(O)OP(=O)(O)O)[C@@H](O)[C@H]1O [ATP],percent of DRG neurons responding,DRG neurons [1]; ATP with lactate,4.7%
same,ability to enhance metabolite responses,DRG neurons [1],capable of enhancing metabolite responses when freshly prepared
same,percent of DRG neurons activated,"DRG neurons [1]; graded series, going from 2 μM to 5 μM",approximately 16%
same,percent of DRG neurons activated,"DRG neurons [1]; gradually increased from resting amounts, only at concentrations higher than 2 μM",< 11%
same,percent of DRG neurons activated,"DRG neurons [1]; increasing graded series from 300 nM, when 2 μM was reached",less than 10%
same,percent of DRG neurons responding,DRG neurons [1]; pH 7.0-ATP 1 μM (increasing protons with addition of ATP),11.2%
CC(O)C(=O)O (stereo not shown) [lactate],percent of DRG neurons activated,"DRG neurons [1]; 50 mM, pH 6.6",9.5%
same,percent of DRG neurons activated,DRG neurons [1]; 5-15 mM combined with protons at pH 7.3-6.8,less than 4%
same,DRG neuron responses,"DRG neurons [1]; alone, 1-50 mM, pH 7.4",caused no increases in DRG neuron responses; also recorded: activated very few mouse DRG neurons
same,total percent of DRG neurons activated,"DRG neurons [1]; lactate plus protons, all levels of metabolites included",more than 10%
Cc1nc(N=Nc2ccc(S(=O)(=O)O)cc2S(=O)(=O)O)c(COP(=O)(O)O)c(C=O)c1O [PPADS],effect on responses to increasing metabolites,DRG neurons [2]; antagonist 300 μM,eliminated most responses to increasing metabolites
same,effect on responses to increasing metabolites,"DRG neurons [2]; antagonist 200-300 μM, doses effective at all P2X receptors",eliminated nearly all responses to increasing metabolites
CC(C)C1c2cc(C3CC3c3ccc4cc(C(=N)N)ccc4c3)ccc2CCN1C (stereo not shown) [A-317567],IC50,ASIC1,2 µM
same,"effect on responses to capsaicin, ATP or KCl","DRG neurons [3]; any dose, applied for 10 minutes or less","caused no decrements in calcium responses evoked by capsaicin, ATP or KCl; also recorded: did not decrease responses to capsaicin, ATP, or KCl; also recorded: did not block DRG neuron capsaicin responses, KCl responses, or responses to 5 μM ATP"
same,"effect on responses to capsaicin, ATP or KCl",DRG neurons [3]; applied for more than 20 minutes,caused some decrements in these responses
same,IC50,ASIC3; read-out: IC 50 for ASIC3,9.5 µM
same,IC50,ASIC2,9.1 µM
same,DRG neuron responses to metabolites blocked,"DRG neurons [2]; antagonist 100 μM, metabolites increased as high as pH 6.6, lactate 50 mM, ATP 5",~80%
same,"responses to metabolites, % of the control level","DRG neurons [2]; antagonist 100 μM, p<0.0001",23%
same,effect on responses to metabolites,DRG neurons [2]; antagonist 200 μM,blocked all responses to metabolites
